Assay [1] deals with T1, human MMP-2 (amino acids 1-660) (Homo sapiens, UniProt P08253).
T1 construct: human MMP-2 (amino acids 1-660); made in house
T1 sequence (P08253 110-660): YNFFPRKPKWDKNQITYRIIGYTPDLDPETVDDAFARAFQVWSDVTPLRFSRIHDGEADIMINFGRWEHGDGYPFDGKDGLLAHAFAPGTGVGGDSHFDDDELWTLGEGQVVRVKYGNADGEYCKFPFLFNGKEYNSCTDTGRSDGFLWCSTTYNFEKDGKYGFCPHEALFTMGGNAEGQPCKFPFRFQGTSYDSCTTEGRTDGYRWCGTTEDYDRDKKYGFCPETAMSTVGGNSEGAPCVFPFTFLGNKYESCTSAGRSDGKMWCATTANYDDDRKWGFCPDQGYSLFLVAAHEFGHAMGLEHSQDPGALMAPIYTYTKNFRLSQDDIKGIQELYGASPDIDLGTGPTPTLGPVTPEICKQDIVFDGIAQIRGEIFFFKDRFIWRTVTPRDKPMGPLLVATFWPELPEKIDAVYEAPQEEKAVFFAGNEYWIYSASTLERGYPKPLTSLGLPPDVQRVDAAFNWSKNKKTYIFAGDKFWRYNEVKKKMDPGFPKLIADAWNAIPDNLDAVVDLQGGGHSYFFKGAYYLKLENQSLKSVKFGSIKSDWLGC
Put plainly: MMP dose response assay for determining IC50, MMP-2. Type of assay: biochemical. As to conditions: for pIC50: recombinant enzyme, fluorescent-quench substrate 100 nM, read-out: MMP-2; for inhibition at 10 µM: read-out: MMP-2 % inhibition at 10 μM. The protocol: (§1) MMP Dose Response Assay for Determining IC50
(§2) The following method was used for determining IC50 values of different inhibitor compounds against multiple MMP enzymes. Frozen stocks of recombinantly produced MMPs were prepared in assay buffer (50 mM HEPES pH 7.4, 10 mM CaCl2, 0.05% Brij-35). […] Enzyme concentrations in the assay were determined empirically and set such that proteolytic activity was maintained in a linear range over the time-course of the experiment. […] Each concentration for each test compound was tested in triplicate. MMP enzymes were equilibrated with compounds for 1 hour at room temperature, then a fluorescent-quench substrate (Acetyl-Cys(Eu)-Pro-Leu-Gly-Leu-Lys-(QSY7)-Ala-Arg-amide) was added to a final concentration of 100 nM. […] Data was analyzed by first calculating average background value from wells that contained only substrate, and this value was subtracted from the entire plate. The 100%, or maximum value, was determined by averaging control wells that contained enzyme, substrate and DMSO. For each well, the percent of control was calculated by dividing the well value by the average DMSO value obtained above.

The target in assay [2] is T2, human MMP-9 (amino acids 107-446) (Homo sapiens, UniProt P14780).
T2 construct: human MMP-9 (amino acids 107-446); made in house
Put plainly: MMP dose response assay for determining IC50, MMP-9. It counts as biochemical. As to conditions: for pIC50: recombinant enzyme, fluorescent-quench substrate 100 nM, read-out: MMP-9; for inhibition at 10 µM: read-out: MMP-9 % inhibition at 10 μM. The protocol:
as §1, §2

What is called inhibition is the change of the read-out against control, counted positive when it falls.

pIC50: −log10 of the molar value. Values joined by “and” are separate entries in the source; they are usually repeats but may differ in a detail not shown here. Equal entries are not always repeated.

T2 sequence (P14780 107-446): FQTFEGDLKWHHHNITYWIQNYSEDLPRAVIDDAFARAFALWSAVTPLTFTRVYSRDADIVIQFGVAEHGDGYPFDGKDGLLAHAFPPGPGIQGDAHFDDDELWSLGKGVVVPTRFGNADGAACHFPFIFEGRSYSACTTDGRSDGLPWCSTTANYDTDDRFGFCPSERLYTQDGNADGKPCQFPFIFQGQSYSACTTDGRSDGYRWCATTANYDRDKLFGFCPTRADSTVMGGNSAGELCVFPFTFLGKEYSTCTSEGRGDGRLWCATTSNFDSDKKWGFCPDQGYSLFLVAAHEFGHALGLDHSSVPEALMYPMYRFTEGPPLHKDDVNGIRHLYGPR

In the case of `CS(=O)(=O)N(C[C@H](Nc1cccc(F)c1)C(=O)NO)c1ccc(Oc2ccc(C(F)(F)F)cn2)cc1` [Example 55, N-Hydroxy (2S)-2-(3-fluorophenyl)amino-3-{N-{4-[(5-trifluoromethylpyridin-2-yl)oxy]phenyl},N-methanesulfonylamino}propionamide], the pIC50 in assay [1] was 5.81; in assay [2], 6.39.
As to `CS(=O)(=O)N(C[C@@H](C(=O)NO)N1CCC(O)CC1)c1ccc(Oc2ccc(Cl)cc2)cc1` [Example 88, N-Hydroxy (2S)-3-{N-[4-(4-chlorophenoxy)phenyl],N-methanesulfonylamino}-2-(4-hydroxypiperidin-1-yl)propionamide], the pIC50 is 8.50 in assay [1] and 9.05 in assay [2].
Turning to `CS(=O)(=O)N(C[C@H](O)C(=O)NO)c1ccc(Oc2ccc(C(F)(F)F)cc2)cc1` [Example 54, N-Hydroxy (2S)-2-hydroxy-3-{N-[4-(4-trifluoromethylphenoxy)phenyl],N-methanesulfonylamino}propionamide], the pIC50 in assay [1] is 6.76 and 6.99; in assay [2], 7.76 and 7.97.
`Cc1ccc(Oc2ccc(N(C[C@H](Nc3cccc(OC(F)(F)F)c3)C(=O)NO)S(C)(=O)=O)cc2)cc1` [Example 52, N-Hydroxy (2S)-3-{N-[4-(4-methylphenoxy)phenyl],N-methanesulfonylamino}-2-(3-trifluoromethoxyphenyl)aminopropionamide]: the pIC50 in assay [1] is 5.97; in assay [2], 6.78.
With `CS(=O)(=O)N(C[C@@H](C(=O)NO)N1CCCCC1)c1ccc(Oc2ccc(C(F)(F)F)cc2)cc1` [Example 96, N-Hydroxy (2S)-2-(piperidin-1-yl)-3-{N-[4-(4-trifluoromethylphenoxy)phenyl],N-methanesulfonylamino}propionamide], the pIC50 in assay [1] was 8.12; in assay [2] it was 8.63.
Regarding `CS(=O)(=O)N(C[C@@H](C(=O)NO)N1CCOCC1)c1ccc(Oc2ccc(Cl)cc2)cc1` [Example 89, N-Hydroxy (2S)-2-(morpholin-4-yl)-3-{N-[4-(4-chlorophenoxy)phenyl],N-methanesulfonylamino}propionamide], the pIC50 in assay [1] was 8.26; in assay [2], 8.70.
The corresponding values for `CS(=O)(=O)N(C[C@H](NC(=O)C1CCOCC1)C(=O)NO)c1ccc(Oc2ccc(C(F)(F)F)cc2)cc1` [Example 93, N-Hydroxy (2S)-2-[(tetrahydropyran-4-yl)carbonylamino]-3-{N-[4-(4-trifluoromethylphenoxy)phenyl],N-methanesulfonylamino}propionamide] are 6.08 and 7.27.
`CS(=O)(=O)N(C[C@@H](O)C(=O)NO)c1ccc(-c2ccccc2)cc1` [Example 9, N-Hydroxy (2R)-2-hydroxy-3-[N-(4-phenyl)phenyl,N-methanesulfonylamino]propionamide]: the inhibition at 10 µM stood at 83.6% in assay [1] and 78.7% in assay [2].
`CS(=O)(=O)N(C[C@H](O)C(=O)N(O)CCN1CCOCC1)c1ccc(Oc2ccc(Cl)cc2)cc1` [Example 101, N-Hydroxy,N-[2-(morpholin-4-yl)ethyl](2S)-2-hydroxy-3-{N-[4-(4-chlorophenoxy)phenyl],N-methanesulfonylamino}propionamide]: the pIC50 in assay [1] was 5.85; in assay [2] it was 6.69.
Regarding `Cc1ccc(Oc2ccc(N(C[C@@H](O)C(=O)NO)S(C)(=O)=O)cc2)cc1` [Example 7, N-Hydroxy (2R)-2-hydroxy-3-{N-[4-(4-methylphenoxy)phenyl],N-methanesulfonylamino}propionamide], the pIC50 in assay [1] was 7.09 and 7.28; in assay [2], 7.69 and 8.50.
For `CS(=O)(=O)N(C[C@H](O)C(=O)NO)c1ccc(Oc2ccc(C(F)(F)F)cn2)cc1` [Example 53, N-Hydroxy (2S)-2-hydroxy-3-{N-{4-[(5-trifluoromethylpyridin-2-yl)oxy]phenyl},N-methanesulfonylamino}propionamide], in assay [2], the pIC50 was 6.33.
For the compound `Cc1ccc(Oc2ccc(N(C[C@H](O)C(=O)NO)S(C)(=O)=O)cc2)cc1` [Example 8, N-Hydroxy (2S)-2-hydroxy-3-{N-[4-(4-methylphenoxy)phenyl],N-methanesulfonylamino}propionamide], the pIC50 in assay [1] was 7.05 and 7.17 and 7.01 and 7.19 and 7.28 and 7.15; in assay [2], 7.98 and 7.95 and 8.00 and 8.47 and 8.33 and 8.12.
`CC(C)CN(O)C(=O)[C@H](CN(c1ccc(Oc2ccc(C(F)(F)F)cc2)cc1)S(C)(=O)=O)N1CCOCC1` [Example 5, N-Hydroxy,N-(2-methylpropyl)(2S)-2-(morpholin-4-yl)-3-{N-[4-(4-trifluoromethylphenoxy)phenyl],N-methanesulfonylamino}propionamide]: the pIC50 in assay [1] was 6.58; in assay [2] it was 7.06.
The corresponding values for `CC(C)N[C@@H](CN(c1ccc(Oc2ccc(C(F)(F)F)cc2)cc1)S(C)(=O)=O)C(=O)NO` [Example 58, N-Hydroxy (2S)-2-(2-propyl)amino-3-{N-[4-(4-trifluoromethylphenoxy)phenyl],N-methanesulfonylamino}propionamide] are 8.04 and 8.63.
As to `Cc1ccc(Oc2ccc(N(C[C@@H](C(=O)NO)N3C[C@@H](C)O[C@@H](C)C3)S(C)(=O)=O)cc2)cc1` [Example 100, N-Hydroxy (2S)-2-(cis-2,6-dimethylmorpholin-4-yl)-3-{N-[4-(4-methylphenoxy)phenyl],N-methanesulfonylamino}propionamide], the results for the pIC50 in assay [1] and in assay [2] were 8.55 and 9.17, respectively.
Consider `CN(O)C(=O)[C@H](CN(c1ccc(Oc2ccc(C(F)(F)F)cc2)cc1)S(C)(=O)=O)N1CCOCC1` [Example 98, N-Hydroxy,N-methyl (2S)-2-(morpholin-4-yl)-3-{N-[4-(4-trifluoromethylphenoxy)phenyl],N-methanesulfonylamino}propionamide], for which the figures for the pIC50 in assay [1] and in assay [2] were 6.35 and 6.80, respectively.
Consider `CS(=O)(=O)N(C[C@H](O)C(=O)NO)c1ccc(-c2ccccc2)cc1` [Example 10, N-Hydroxy (2S)-2-hydroxy-3-[N-(4-phenyl)phenyl,N-methanesulfonylamino]propionamide], for which the inhibition at 10 µM in assay [1] was 87%; in assay [2], 79%.
Turning to `CS(=O)(=O)N(C[C@H](Nc1cccc(F)c1)C(=O)NO)c1ccc(Oc2ccc(C(F)(F)F)cc2)cc1` [Example 59, N-Hydroxy (2S)-2-(3-fluorophenyl)amino-3-{N-[4-(4-trifluoromethylphenoxy)phenyl],N-methanesulfonylamino}propionamide], the pIC50 in assay [1] was 6.33; in assay [2], 7.50.
In the same order, the values of `CC(C)O[C@@H](CN(c1ccc(Oc2ccc(C(F)(F)F)cc2)cc1)S(C)(=O)=O)C(=O)NO` [Example 99, N-Hydroxy (2S)-2-(2-propoxy)-3-{N-[4-(4-trifluoromethylphenoxy)phenyl],N-methanesulfonylamino}propionamide] are 7.30 and 8.09.
In the same order, the values of `Cc1ccc(Oc2ccc(N(C[C@H](Nc3ccc(OC(F)(F)F)cc3)C(=O)NO)S(C)(=O)=O)cc2)cc1` [Example 50, N-Hydroxy (2S)-3-{N-[4-(4-methylphenoxy)phenyl],N-methanesulfonylamino}-2-(4-trifluoromethoxyphenyl)aminopropionamide] are 6.06 and 7.13.

For the origin of these results see patent US20080085893A1, “MATRIX METALLOPROTEASE INHIBITORS” (priority 2006, published 2008).
